Values quoted from earlier work, collected in patent US9044505B2, “Multimeric biotinidase resistant multimodality probes” (priority 2012, dated 2015).

Tested on: (strept)avidin
Details: (strept)avidin-biotin interaction

## O=C(O)CCCC[C@@H]1SC[C@@H]2NC(=O)N[C@@H]21 [biotin]
  Ka: 10^15 M
